The SangsterLogP compilation

SMILES	logP
CCN(CC)/N=N/c1ccc(C(N)=O)cc1	2.26
COc1ccc(/N=N/N(C)C)cc1	2.99
COC(=O)c1ccc(/N=N/N(C)C)cc1	3.22
CN(C)/N=N/c1ccccc1C(=O)O	-0.28
CCCN(C)N=Nc1ccc(C(N)=O)cc1	2.17
CN(C)N=Nc1ccc(S(=O)(=O)Nc2ccno2)cc1	0.42
CN(Cc1ccccc1)N=Nc1ccc(C(N)=O)cc1	2.77
CCN(CC)N=Nc1cc([N+](=O)[O-])cc([N+](=O)[O-])c1	4.69
CCN(CC)N=Nc1ccc(S(C)(=O)=O)cc1	2.6
CN(C)/N=N/c1ccc([N+](=O)[O-])cc1	3.25
CN(C)/N=N/c1ccc(S(C)(=O)=O)cc1	1.59
CN(C)/N=N/c1cccc(C(=O)O)c1	-0.38
COC(=O)c1cccc(/N=N/N(C)C)c1	3.12
CCCCCN(C)N=Nc1ccc(S(=O)(=O)Nc2nccc(C)n2)cc1	2.34
CCNN=Nc1ccc(C(N)=O)cc1	1.19
CN(C)N=Nc1ccc(S(=O)(=O)CCO)cc1	1.15
CC(=O)N(C)N=Nc1ccc(C(N)=O)cc1	1.37
CNN=Nc1ccc(C(N)=O)cc1	0.48
CCN(C)N=Nc1ccccc1C(=O)O	0.11
CCCC(C)N(C)N=Nc1ccc(C(=O)O)cc1 (stereo not given)	1.35

SMILES	logP
CCCN(C)N=Nc1ccc(C(=O)O)cc1	0.46
COC(=O)c1ccccc1/N=N/N(C)C	2.51
CC(C)N(N=Nc1ccc(C(N)=O)cc1)C(C)C	3
CCCCCN(C)N=Nc1ccc(C(=O)O)cc1	1.46
CCCCN(C)N=Nc1ccc(C(=O)O)cc1	0.96
CN(C)/N=N/c1ccc(C(F)(F)F)cc1	4
CN(C)/N=N/c1ccc(S(N)(=O)=O)cc1	0.85
CCN(CC)N=Nc1ccccc1C(N)=O	2.96
CCOC(=O)c1ccc(N=NN(C)CCO)cc1	2.66
CCCCCN(C)N=Nc1ccc(C(N)=O)cc1	3.18
CCN(C)/N=N/c1ccc(C(N)=O)cc1	1.69
CN(C)/N=N/c1cccc(C(N)=O)c1	1.3
CCCCN(C)/N=N/c1ccc(C(N)=O)cc1	2.68
CCN(C)/N=N/c1ccccc1C(N)=O	2.59
CCCCCN(C)N=Nc1ccc(S(=O)(=O)Nc2ccccn2)cc1	2.16
CCCCN(C)/N=N/c1ccccc1C(N)=O	3.52
CN(CC(F)(F)F)N=Nc1ccc(C(N)=O)cc1	1.86
C=CCN(CC=C)N=Nc1ccccc1C(=O)O	0.62
CCOC(=O)c1ccc(/N=N/N(C)C)cc1	3.66
CCN(CC)N=Nc1ccccc1C(=O)O	1.49
